Source: publication doi:10.1101/2022.03.22.485260v1 (biorxiv, 2022)
Like-named read-outs stand apart in the source and are kept apart here.

Assays:
[1] = target: T1, hTMPK (thymidylate kinase) (Homo sapiens, UniProt P23919); experiment: NADH-coupled; format: biochemical
T1 sequence (P23919 2-212): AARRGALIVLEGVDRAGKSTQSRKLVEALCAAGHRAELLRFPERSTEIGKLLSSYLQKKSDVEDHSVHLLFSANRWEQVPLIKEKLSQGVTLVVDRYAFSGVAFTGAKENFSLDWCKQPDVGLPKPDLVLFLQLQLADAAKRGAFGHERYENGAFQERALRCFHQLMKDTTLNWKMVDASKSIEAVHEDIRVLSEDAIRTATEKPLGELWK

[2] = target: T1, hTMPK (thymidylate kinase); experiment: NADH-coupled assay, […] min pre-incubation, non-linear fit; format: biochemical; conditions: ATP varied 0-200 μM, 500 μM TMP; mixed inhibition; pH 7.5, 25 °C

IC50 [1] [nM] | IC50 ([1]; 500 μM ATP, 500 μM dTMP, 10 mM MgCl2, pH 7.5, 25 °C) [nM] | Ki [2] [nM] | Molecule
500 | – | – | CC(C)(C)OC(=O)N1CCN(C(=O)Cn2sc3ccccc3c2=O)CC1 [JMF2977]
– | 160 | 5 | Tert-butyl 4-(2-(5-fluoro-3-oxobenzo[d]isothiazol-2(3H)-yl) acetyl) piperazine-1-carboxylate [JMF4073]
